Measurements published in US8703790B2, “Bis [O-(14-benzoylaconine-8-yl)] esters” (priority 2008, dated 2014).

Experiments:
MCF-7 (breast cancer) = assay: In vitro cytotoxicity test (MTT) against human tumour cell line MCF-7; format: cell-based; conditions: MCF-7, 24 h contact, 48 h re-growth
Procedure: (§1) Human tumour cell lines A549 (lung cancer), HCT-15 (colon cancer) and MCF-7 (breast cancer) have been obtained from the Developmental Therapeutics Program of the National Cancer Institute (Rockville, Md., USA). Cells were routinely grown with RPMI 1640 medium supplemented with 10% foetal calf serum, both obtained from Biochrom AG (Berlin, Germany). They were grown on Petri dishes (Nunc, Denmark) at 37° C. in a humidified atmosphere containing 5% CO2. Cells were replicated every 4 days and the medium changed once in-between.
(§2) Cytotoxicity has been evaluated on exponentially growing cells grown for 24 h in presence of the compounds to be tested. Briefly, 4000 cells were seeded in 96-well plates with 200 μL of complete medium; 24 hours later the medium was supplemented with a series of different concentrations of compounds and the contact maintained for 24 h. Compounds were dissolved in pure water and sterilised using polycarbonate membrane filters of 0.22 μm (Millipore, Molsheim, France). The cells were then allowed to re-grow for 48 hours; viable and metabolically active cells were quantitatively estimated by coloration with the MTT dye (1-(4,5-dimethylthyazol-2-yl)-3,5-diphenylformazan), Sigma-Aldrich Chimie, Saint-Quentin-Fallavier, France). The amount of substance allowing a 50% decrease in cell numbers is indicative of the cytotoxicity and represents the IC50 of compound.

A549 (lung cancer) = assay: In vitro cytotoxicity test (MTT) against human tumour cell line A549; format: cell-based; conditions: A549, 24 h contact, 48 h re-growth
Procedure: as §1, §2

[1] = system: HTC-15 (colon cancer), A549 (lung cancer), MCF-7 (breast cancer); conditions: HTC-15, A549, MCF-7; publication A. Chodoeva et al.; read-out: IC50 in these three cell lines; cited from earlier work
HCT-15 (colon cancer) = assay: In vitro cytotoxicity test (MTT) against human tumour cell line HCT-15; format: cell-based; conditions: HCT-15, 24 h contact, 48 h re-growth
Procedure: as §1, §2

HCT-15 = conditions: HCT-15, NCI data base values; cited from earlier work
MCF-7 = conditions: MCF-7, NCI data base values; cited from earlier work
A549 = conditions: A549, NCI data base values; cited from earlier work
[2] = system: mitochondrial oxidoreductases; conditions: tumour cells; Picardo et al. 1985; cited from earlier work
mouse tumours = mouse tumours in vivo; cited from earlier work
[3] = background statement; cited from earlier work

## CCN1CC2(COC)C(O)CC(OC)C34C5CC6(O)C(OC)C(O)C(OC(=O)CCCCCCCC(=O)O)(C5C6OC(=O)c5ccccc5)C(C(OC)C23)C14 (stereo not shown) [8-O-azeloyl-14-benzoylaconine, reference compound]
MCF-7 (breast cancer)
  IC50: 10.3 µM
A549 (lung cancer)
  IC50: 16.8 µM
[1]
  IC50: 10 to 18 µM
HCT-15 (colon cancer)
  IC50: 19.4 µM

## CCN1C[C@]2(COC)[C@H](O)C[C@H](OC)[C@]34C1[C@H]([C@H](OC)[C@H]23)[C@]1(OC(=O)CCCCCC(=O)O[C@]23[C@H]5[C@@H](OC(=O)c6ccccc6)[C@](O)(C[C@H]5[C@@]56C7[C@@H]2[C@H](OC)[C@@H]5[C@](COC)(CN7CC)[C@H](O)C[C@@H]6OC)[C@@H](OC)[C@@H]3O)[C@H]2[C@@H](OC(=O)c3ccccc3)[C@](O)(C[C@H]24)[C@@H](OC)[C@@H]1O [PDD, bis[O-(14-benzoylaconine-8-yl)]-pimelate]
MCF-7 (breast cancer)
  IC50: 7.5 µM
A549 (lung cancer)
  IC50: 3.76 µM
HCT-15 (colon cancer)
  IC50: 3.76 µM

## N[C@@H](Cc1ccc(N(CCCl)CCCl)cc1)C(=O)O [mephalan]
HCT-15
  IC50: 39.4 µM
MCF-7
  IC50: 11.1 µM
A549
  IC50: 28.7 µM

## O=C(O)CCCCCCCC(=O)O [Azelaic acid, azelaic acid]
[2]
  inhibition of mitochondrial oxidoreductases: inhibitor of mitochondrial oxidoreductases
Mouse tumours
  antitumour activity: total absence of antitumour activity

## CCN1C[C@]2(COC)[C@H](O)C[C@H](OC)[C@]34C1[C@H]([C@H](OC)[C@H]23)[C@]1(O)[C@H]2[C@@H](O)[C@](O)(C[C@H]24)[C@@H](OC)[C@@H]1O [Aconine]
[3]
  antiproliferative activity: devoid of antiproliferative activity

## CCN1C[C@]2(COC)[C@H](O)C[C@H](OC)[C@]34C1[C@H]([C@H](OC)[C@H]23)[C@]1(OC(=O)CCCCCCCC(=O)O[C@]23[C@H]5[C@@H](OC(=O)c6ccccc6)[C@](O)(C[C@H]5[C@@]56C7[C@@H]2[C@H](OC)[C@@H]5[C@](COC)(CN7CC)[C@H](O)C[C@@H]6OC)[C@@H](OC)[C@@H]3O)[C@H]2[C@@H](OC(=O)c3ccccc3)[C@](O)(C[C@H]24)[C@@H](OC)[C@@H]1O [ADD, bis[O-(14-benzoylaconine-8-yl)]-azelate]
MCF-7 (breast cancer)
  IC50: 15.5 µM
A549 (lung cancer)
  IC50: 19.1 µM
HCT-15 (colon cancer)
  IC50: 22 µM

## N.N.[Cl][Pt][Cl] [cisplatin]
HCT-15
  IC50: 7.21 µM
MCF-7
  IC50: 3.01 µM
A549
  IC50: 3.08 µM

## O=c1[nH]cc(F)c(=O)[nH]1 [5-FU, fluorouracil]
HCT-15
  IC50: 5.69 µM
MCF-7
  IC50: 1.75 µM
A549
  IC50: 2.11 µM

## COc1cc([C@@H]2c3cc4c(cc3[C@@H](O[C@@H]3O[C@@H]5CO[C@@H](C)O[C@H]5[C@H](O)[C@H]3O)[C@H]3COC(=O)[C@H]23)OCO4)cc(OC)c1O [etoposide]
HCT-15
  IC50: 17.6 µM
MCF-7
  IC50: 5.73 µM
A549
  IC50: 3.61 µM
